Patent US20250270173A1, “PYRIDINE DERIVATIVES FOR TREATING PSYCHIATRIC DISORDERS” (GILGAMESH PHARMACEUTICALS, INC., priority 2022, published 2025)
Values joined by “and” are separate entries in the source; they are usually repeats but may differ in a detail not shown here. Identical values can stand only once. Like-named read-outs stand apart in the source and are kept apart here.

Experiments:
5-HT2A receptor [1] = biological target: T1, 5-HT2A receptor (Homo sapiens (Human), UniProt P28223); assay: FLIPR Ca2+ flux functional assay at 5-HT2A (HEK293); settings: for 5-HT2A % Act @ Max Conc.: HEK293, at max concentration
5-HT2A receptor [2] = biological target: T1, 5-HT2A receptor; assay: 5-HT2A receptor radioligand binding with [3H]ketanserin; settings: read-out: Ki at 5-HT2A Receptor (nM) ([3H]ketanserin); HEK293 stable cell line, 1 nM [3H]ketanserin, 1 h, 25 °C
5-HT2B receptor = 5-HT2B receptor (Homo sapiens (Human), UniProt P41595); assay: FLIPR Ca2+ flux functional assay at 5-HT2B (HEK293); settings: for 5-HT2B % Act @ Max Conc.: HEK293, at max concentration
Chain of 5-HT2B receptor (P41595 whole entry, looked up): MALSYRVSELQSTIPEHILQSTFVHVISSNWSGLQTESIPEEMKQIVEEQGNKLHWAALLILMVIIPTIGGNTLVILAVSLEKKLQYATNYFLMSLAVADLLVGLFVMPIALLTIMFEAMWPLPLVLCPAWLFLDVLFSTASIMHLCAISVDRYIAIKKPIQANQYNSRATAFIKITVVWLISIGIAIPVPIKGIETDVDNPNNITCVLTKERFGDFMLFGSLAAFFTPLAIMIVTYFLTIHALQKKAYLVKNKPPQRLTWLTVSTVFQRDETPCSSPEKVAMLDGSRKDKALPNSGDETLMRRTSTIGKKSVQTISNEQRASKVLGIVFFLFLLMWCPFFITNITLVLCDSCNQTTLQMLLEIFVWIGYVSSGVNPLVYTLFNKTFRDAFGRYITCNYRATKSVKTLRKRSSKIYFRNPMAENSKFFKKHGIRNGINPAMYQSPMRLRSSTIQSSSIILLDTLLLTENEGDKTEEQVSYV

5-HT1A receptor = 5-HT1A receptor (Homo sapiens (Human), UniProt P08908); assay: FLIPR Ca2+ flux functional assay at 5-HT1A (CHO cells); settings: for 5-HT1A % Act @ Max Conc.: at max concentration
C57BL/6 mice = assay: Automated (video tracking) head twitch response (HTR) assay in mice; type: in vivo; settings: SC; for ED50: Mus musculus, 20 min, 20 min recording, read-out: ED50; for Most Efficacious Dose; mg/kg: dose giving the most HTR
Protocol: Disclosed compounds were tested for their ability to induce a head twitch response (HTR) in mice using an automated video tracking procedure, with the results summarized in Table 5. […] The phenyl Compound 44 was substantially more efficacious at inducing HTR than its pyridine counterpart Compound 29, in agreement with the generally lower maximal efficacy of the disclosed pyridine compounds for signaling through 5-HT2A receptors.
Animals. Adult male C57BL/6 mice aged 8-10 weeks (body weight 20-25 g) were used in these experiments. Animals were housed under controlled temperatures and 12-hour light/dark cycles (lights on between 07:00-19:00 h), with ad libitum food and water. The protocol was approved by the Institutional Animal Care and Use Committee at the study site. This study was carried out in strict accordance with the recommendations in the Guide for the Care and Use of Laboratory Animals of the National Institutes of Health. All efforts were made to minimize suffering.
Drugs and Drug Administration. […] was commercially obtained. Disclosed compounds were synthesized as described above. They were administered subcutaneously (SC) dissolved in saline (or saline acidified with 1-2 molar equivalents HCl to form the salt in situ for freebase compounds) at a volume of 10 mL/kg. Five doses were tested, with N=5-8 animals/group. Doses were calculated on the basis of the freebase, except for DOI, which was calculated based on the HCl salt.
Procedure. Mice were administered one dose of the drug and immediately placed into a small open field for behavioral observation. High-speed video of animals' behavior was captured continuously for 20 min. Video recordings were imported into an image processing software, which detects multiple points of interest on each animal's body, including the left and right ear. HTR events were defined as periodic deviations of ear locations from temporally averaged ear locations. Predefined thresholds for magnitude and frequency of location deviations were used to filter […] events from random head movements. The method was validated by comparing detected events with manual (human) observations and found to have an accuracy >95%. The total number of HTR events counted during the 20-min recording were determined for each animal at each dose.
Statistical Analysis. Analysis was performed using GraphPad Prism 9. Dose-response curves were fit via non-linear regression using the Gaussian 2020 function in Prism in order to determine the ED50 and Emax for each compound.

human 5-HT2C receptor = human 5-HT2C receptor (Homo sapiens (Human), UniProt P28335); assay: FLIPR Ca2+ flux functional assay at 5-HT2C (Eurofins DiscoverX); type: cell-based; settings: for 5-HT2C % Act @ Max Conc.: Ca2+ flux, human 5-HT2C, at max concentration
Chain of human 5-HT2C receptor (P28335 whole entry, looked up): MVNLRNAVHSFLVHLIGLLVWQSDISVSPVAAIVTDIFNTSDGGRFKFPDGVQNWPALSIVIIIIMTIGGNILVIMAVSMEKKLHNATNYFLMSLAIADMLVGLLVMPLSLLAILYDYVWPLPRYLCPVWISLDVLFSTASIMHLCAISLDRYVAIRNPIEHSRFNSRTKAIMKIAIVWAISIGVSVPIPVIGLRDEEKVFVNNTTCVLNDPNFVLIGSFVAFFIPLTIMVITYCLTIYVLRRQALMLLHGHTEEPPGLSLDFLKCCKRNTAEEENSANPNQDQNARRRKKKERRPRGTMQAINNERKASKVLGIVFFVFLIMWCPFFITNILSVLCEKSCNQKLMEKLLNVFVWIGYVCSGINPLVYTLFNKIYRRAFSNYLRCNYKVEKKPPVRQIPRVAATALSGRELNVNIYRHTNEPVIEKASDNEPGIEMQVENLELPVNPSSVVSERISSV
Protocol: Functional Assays at 5-HT2C Receptors. […] Probenecid was prepared fresh. Cells were loaded with dye prior to testing and incubated at 37° C. for 30-60 minutes. After dye loading, cells were removed from the incubator and 10 μL HBSS/20 mM Hepes was added. 3× vehicle was included in the assay buffer. Cells were incubated for 30 mins at room temperature in the dark to equilibrate plate temperature. Intermediate dilution of sample stocks was performed to generate 4× sample in assay buffer. Compound agonist activity was measured on a FLIPR Tetra (MDS). Calcium mobilization was monitored for 2 minutes and 10 μL 4× sample in HBSS/20 mM Hepes was added to the cells 5 seconds into the assay.

[3] = read-out: 5-HT2A EC50, Ca2+ flux, HEK293
[4] = read-out: 5-HT2B EC50, Ca2+ flux, HEK293

| SMILES | EC50 (5-HT2A receptor [1]) [nM] | 5-HT2A % Act @ Max Conc. (5-HT2A receptor [1]; Ca2+ flux) | 5-HT2B % Act @ Max Conc. (5-HT2B receptor; Ca2+ flux) [%] | 5-HT1A % Act @ Max Conc. (5-HT1A receptor; Ca2+ flux, CHO cells) [%] | EC50 (5-HT2B receptor) [nM] | EC50 (5-HT1A receptor) [nM] | 5-HT2C % Act @ Max Conc. (human 5-HT2C receptor) [%] | other results |
| --- | --- | --- | --- | --- | --- | --- | --- | --- |
| CCC(N)Cc1nc(OC)c(C)cc1OC (stereo not shown) [Compound 2, 1-(3,6-dimethoxy-5-methylpyridin-2-yl)butan-2-amine] | 847 | 69.78% | – | – | – | – | – | – |
| COc1cc(CCN)c(OC)cc1Br [Compound 2C-B, 2C-B, reference compound] | – | 99.7% | 73.3 | 47.8 | – | – | – | EC50 (5-HT2A receptor [1]; [3]): 0.478 nM; Ki (5-HT2A receptor [2]): 8.25 nM; EC50 (5-HT2B receptor; [4]): 20 nM; EC50 (5-HT1A receptor; read-out: 5-HT1A EC50, Ca2+ flux, CHO cells): 33100 nM |
| CCc1cc(OC)c(CCN)cc1OC [Compound 2C-E, 2C-E, reference compound] | – | 105% | 66.2 | 17.9 | – | – | – | EC50 (5-HT2A receptor [1]; [3]): 0.747 nM; Ki (5-HT2A receptor [2]): 16.7 nM; EC50 (5-HT2B receptor; [4]): 29.7 nM |
| CCC(N)Cc1nc(OC)c(Br)cc1OC (stereo not shown) [Compound 3, 1-(5-bromo-3,6-dimethoxypyridin-2-yl)butan-2-amine] | 136 | 70.17% | – | – | – | – | – | – |
| COc1cc(C)c(OC)nc1CC(C)N (stereo not shown) [Compound 5, 1-(3,6-dimethoxy-5-methylpyridin-2-yl)propan-2-amine] | 30 | 104.25% | 68.46 | 0.59 | 575 | > 100000 | – | – |
| COc1cc(Br)c(OC)nc1CC(C)N (stereo not shown) [Compound 6, 1-(5-bromo-3,6-dimethoxypyridin-2-yl)propan-2-amine] | 2.13 | 95.6% | 70.54 | 1.66 | 170 | > 100000 | – | – |
| COc1cc(C)c(OC)nc1CCN [Compound 8, 2-(3,6-dimethoxy-5-methylpyridin-2-yl)ethan-1-amine] | 65.8 | 85.81% | 36.99 | −0.62 | 1010 | > 100000 | – | – |
| COc1cc(Br)c(OC)nc1CCN [Compound 9, 2-(5-bromo-3,6-dimethoxypyridin-2-yl)ethan-1-amine] | 9.81 | 96.84% | 38.01 | 2.11 | 764 | > 100000 | 95.94 | ED50 (C57BL/6 mice): 1.38 mg/kg; Emax (HTR counts/20 min) (C57BL/6 mice): 49.65 HTR counts/20 min; # HTR/20 min at Most Efficacious Dose (C57BL/6 mice): 45.75 HTR/20 min; Most Efficacious Dose; mg/kg (C57BL/6 mice): (3.2) mg/kg; EC50 (human 5-HT2C receptor): 30.7 nM |
| CCCCCc1cc(OC)c(CC(N)CC)cc1OC (stereo not shown) [Compound 10, 1-(2,5-dimethoxy-4-pentylphenyl)butan-2-amine] | – | 72% and 71.5% | 0.211 | 33.1 | – | – | 115 | – |
| CCCCCc1nc(OC)c(CC(N)CC)cc1OC (stereo not shown) [Compound 11, 1-(2,5-dimethoxy-6-pentylpyridin-3-yl)butan-2-amine] | 356 | 62.2% | 6.92 | 197 | – | 19200 | – | – |
| CCCCCc1nc(OC)c(CC(N)CC)nc1OC (stereo not shown) [Compound 12, 1-(3,6-dimethoxy-5-pentylpyrazin-2-yl)butan-2-amine] | > 3160 | 37.1% | 7.05 | 170 | – | 33300 | – | – |
| CCc1cc(OC)c(CC(N)CC)nc1OC (stereo not shown) [Compound 21, 1-(5-ethyl-3,6-dimethoxypyridin-2-yl)butan-2-amine] | 170 | 73.61% | – | – | – | – | – | – |
| CCSc1cc(OC)c(CCN)nc1OC [Compound 22, 2-(5-(ethylthio)-3,6-dimethoxypyridin-2-yl)ethan-1-amine] | 4.09 | 94.73% | 22.75 | −1.51 | 215 | > 100000 | – | – |
| CCSc1cc(OC)c(CC(C)N)nc1OC (stereo not shown) [Compound 23, 1-(5-(ethylthio)-3,6-dimethoxypyridin-2-yl)propan-2-amine] | 3.03 | 106.2% | 67.46 | 3.21 | 44.5 | > 100000 | – | – |
| CCSc1cc(OC)c(CC(N)CC)nc1OC (stereo not shown) [Compound 24, 1-(5-(ethylthio)-3,6-dimethoxypyridin-2-yl)butan-2-amine] | 74.6 | 77.03% | 14.99 | 2.99 | > 10000 | > 100000 | – | – |
| COc1cc(C2CC2)c(OC)nc1CCN [Compound 26, 2-(5-cyclopropyl-3,6-dimethoxypyridin-2-yl)ethan-1-amine] | 27 | 81.58% | 5.16 | 2.22 | > 10000 | > 100000 | – | – |
| CCC(N)Cc1nc(OC)c(C2CC2)cc1OC (stereo not shown) [Compound 28, 1-(5-cyclopropyl-3,6-dimethoxypyridin-2-yl)butan-2-amine] | 161 | 71.49% | – | – | – | – | – | – |
| CCCCCCc1cc(OC)c(CCN)nc1OC [Compound 29, 2-(5-hexyl-3,6-dimethoxypyridin-2-yl)ethan-1-amine] | 34.6 | 69.91% | 7.78 | – | > 10000 | > 100000 | – | ED50 (C57BL/6 mice): 7.46 mg/kg; Emax (HTR counts/20 min) (C57BL/6 mice): 22.11 HTR counts/20 min; # HTR/20 min at Most Efficacious Dose (C57BL/6 mice): 23 HTR/20 min; Most Efficacious Dose; mg/kg (C57BL/6 mice): (3.2) mg/kg |
| CCCc1cc(OC)c(CC(N)CC)nc1OC (stereo not shown) [Compound 37, 1-(3,6-dimethoxy-5-propylpyridin-2-yl)butan-2-amine] | 128 | 49.58% | 12.18 | 42.24 | > 10000 | > 100000 | – | – |
| CCC(N)Cc1cc(OC)c(C)cc1OC (stereo not shown) [Compound 39, reference compound] | – | 112.8% | 39.2 | 8.7 | – | – | 99.3 | – |
| CCCc1cc(OC)c(CC(N)CC)cc1OC (stereo not shown) [Compound 40, reference compound] | – | 84.23% | −0.18 | 96.43 | – | – | 93.58 | – |
| CCCCCc1cc(OC)c(CC(C)N)cc1OC (stereo not shown) [Compound 41, reference compound] | – | 100.2% | 20.0 | 15.0 | – | – | 90.1 | – |
| CCCCCCc1cc(OC)c(CC(C)N)cc1OC (stereo not shown) [Compound 42, reference compound] | – | 119.7% | 39.8 | 30.4 | – | – | 99.8 | – |
| CCCCCc1cc(OC)c(CCN)cc1OC [Compound 43, reference compound] | – | 105.2% | 62.2 | 18.9 | – | – | 85.6 | – |
| CCCCCCc1cc(OC)c(CCN)cc1OC [Compound 44, reference compound] | – | 90.51% | 46.79 | 183.21 | – | – | 82.62 | ED50 (C57BL/6 mice): 1.36 mg/kg; Emax (HTR counts/20 min) (C57BL/6 mice): 57.87 HTR counts/20 min; # HTR/20 min at Most Efficacious Dose (C57BL/6 mice): 58.0 HTR/20 min; Most Efficacious Dose; mg/kg (C57BL/6 mice): (3.2) mg/kg |
| COc1cc(CCN)cc(OC)c1OC [Mescaline, reference compound] | – | 102% | 45.4 | −5.03 | – | – | 91.1 | – |
